# According to patent publication EP0864571A1, “APOVINCAMINIC ACID DERIVATIVE AND MEDICINE CONTAINING THE SAME” (Hidaka, Hiroyoshi, priority 1995, dated 1997):
# Where two headings read alike, the source gives them in different places.
# Key:
# [1] = system: platelet-rich plasma (PRP); test: Platelet aggregation inhibition test (ex vivo PRP after oral administration); assay type: in vivo; details: guinea pigs, blood one hour after administration; for Platelet aggregation inhibition rate (%) Collagen: collagen (2.5 µg/mg); for Platelet aggregation inhibition rate (%) Arachidonic acid: arachidonic acid (0.1 mM)
# Method: A test was conducted using male S1c:Hartley guinea pigs, which were 5 to 7 weeks old and had body weights of from 274 to 554 g, in groups each of which consisted of five guinea pigs. […] One hour after the administration, blood was collected from the abdominal aorta, and a platelet-rich plasma (PRP) was prepared. […]
# [2] = Acute toxicity (single intravenous shot, approximate LD50); details: mouse, in vivo, male S1C:ICR mice, single shot into caudal vein
# Method: A test was conducted using male S1C:ICR mice, which were 6 to 7 weeks old and had body weights of from 18 to 36 g, in groups each which consisted of 3 mice.
# Predetermined amounts of compounds according to the present invention and a comparative drug (vinpocetine phosphate), each of which had been dissolved in a 5% aqueous solution of glucose, were administered as single shots into the caudal veins of the mice, and the mice were then observed to determine whether they remained under normal conditions or died. Upon expiration of an observation period, their approximate LD50 values were calculated by the provit method.
# [3] = system: superior mesenteric artery; test: Vascular smooth muscle relaxing activity (potassium chloride-contracted helical artery preparation); design: species or system rabbit; details: read-out: Vascular smooth muscle relaxing activity (ED50)
# Method: Each rabbit was sacrificed under exsanguination, and an incision was then made in the flank thereof. […] After this preparation cut was caused to contract with potassium chloride to maintain it under predetermined tension, a given test compound was added cumulatively.
# [4] = system: washed platelets; test: Platelet aggregation inhibiting activity (washed platelets, collagen, nephelometric analysis); assay type: cell-based, normal volunteer; details: Homo sapiens, read-out: Platelet aggregation inhibiting activity (IC50)
# Method: Blood, which had been collected from a normal volunteer and had immediately been mixed with 1/10 volume of a 0.38% agueous solution of sodium citrate, was converted into a platelet-rich plasma (PRP) by centrifugation (700 x G, 10 minutes). To the PRP, 1/6 volume of the ACD solution (2.2% sodium citrate, 0.8% citric acid, 2.2% glucose - prepared before use) was added, followed by centrifugation (1,500 x G, 10 minutes). A platelet pellet so obtained was suspended in a modified HEPES Tyrode solution (135 mM sodium chloride, 2.7 mM potassium chloride, 1 mM magnesium chloride, 0.1 mg/mℓ glucose, 20 mM HEPE; pH 7.4). After 1/6 volume of the ACD solution was added to the suspension, further centrifugation was conducted (1,500 x G, 5 minutes). A platelet pellet so obtained was suspended in the modified HEPES Tyrode solution, whereby a washed platelet suspension containing about 300,000 platelets/µℓ therein was obtained.
# Into 270-µℓ aliquots of the washed platelet suspension obtained above, 3-µℓ aliquots of solutions of a given test compound at varied concentrations in an appropriate solvent were added, respectively. The resulting mixtures were each preheated at 37°C for 2 minutes and, subsequent to the addition of 30 µℓ of a 20 µg/mℓ solution of collagen, an absorbance was measured by a 4-channel aggregometer ("HEMA Tracer 601"; manufactured by Nicoh Bioscience Co., Ltd.).
# As a control, an absorption at the time of maximum aggregation by collagen in the presence of a solvent making use of a given test compound was assumed to be 100 whereas an absorbance before the addition of collagen was assumed to be 0. An inhibition rate (%) was then calculated from an absorbance at the time of maximum aggregation by collagen when the given test compound was added, and a concentration (µM) of the given test compound which achieves 50% inhibition was expressed as "IC50".
# [5] = system: Vertebral blood flow and femoral blood flow; test: Blood flow enhancement test (anesthetized beagles, electromagnetic flow probe); assay type: in vivo; details: femoral vein administration
# Method: A test was conducted using male beagles, which were 9 to 13 months old, had body weights of from 9 to 10 kg and had been anesthetized with pentobarbital sodium (25-30 mg/kg), in groups each of which consisted of four beagles. Into one of the femoral veins of each of the beagles, a given test compound in a form dissolved in a 5% agueous solution of glucose was administered at a dose of from 0.1 to 1.0 mg/kg. Vertebral blood flow and femoral blood flow were measured using an electromagnetic flow probe connected to a magnetic flow meter.
# [6] = Oryctolagus cuniculus, rabbit superior mesenteric artery contracted with potassium chloride, concentration for 50% relaxation
# [7] = washed platelets of a normal volunteer, aggregation by collagen
"EC50 [3, 6]",Structure (SMILES),"IC50 [4, 7]",other results
,"O=C1CCc2cc(OCCCCc3nnnn3C3CCCCC3)ccc2N1 [Cilostazol, reference compound]",,Platelet aggregation inhibition rate (%) Collagen ([1]; oral 100 mg/kg): 12.4%; Platelet aggregation inhibition rate (%) Arachidonic acid ([1]; oral 300 mg/kg): 22.1%; Platelet aggregation inhibition rate (%) Collagen ([1]; oral 300 mg/kg): 74.7%
,"CCOC(=O)C1=CC2(CC)CCCN3CCc4c(n1c1cc(NS(=O)(=O)c5ccccc5)ccc41)C32 (stereo not shown) [Compound 1, ethyl 11-phenylsulfonylamino-apovin-caminate]",,LD50 [2]: 85 mg/kg; Platelet aggregation inhibition rate (%) Arachidonic acid ([1]; oral 100 mg/kg): 45.2%; Platelet aggregation inhibition rate (%) Collagen ([1]; oral 100 mg/kg): 85.4%
2100 nM,"CCC12C=C(C(=O)OC)n3c4c(c5ccc(NS(=O)(=O)c6ccccc6)cc53)CCN(CCC1)C42 (stereo not shown) [Compound 2, Methyl 11-phenylsulfonylamino-apovincaminate]",380 nM,
1000 nM,"CCOC(=O)C1=CC2(CC)CCCN3CCc4c(n1c1cc(NS(=O)(=O)c5ccc(Br)cc5)ccc41)C32 (stereo not shown) [Compound 4, Ethyl 11-(4-bromophenyl)sulfonylamino-apovincaminate]",760 nM,
1300 nM,"CCC12C=C(C(=O)OC(C)C)n3c4c(c5ccc(NS(=O)(=O)c6ccc(Cl)cc6)cc53)CCN(CCC1)C42 (stereo not shown) [Compound 5, Isopropyl 11-(4-chlorophenyl)sulfonylamino-apovincaminate]",940 nM,
1300 nM,"CCCOC(=O)C1=CC2(CC)CCCN3CCc4c(n1c1cc(NS(=O)(=O)c5ccc(Cl)cc5)ccc41)C32 (stereo not shown) [Compound 6, Propyl 11-(4-chlorophenyl)sulfonylamino-apovincaminate]",960 nM,
2000 nM,"CCOC(=O)C1=CC2(CC)CCCN3CCc4c(n1c1cc(NS(=O)(=O)c5ccc(F)cc5)ccc41)C32 (stereo not shown) [Compound 7, Ethyl 11-(4-fluorophenyl)sulfonylamino-apovincaminate]",910 nM,
1300 nM,"CCOC(=O)C1=CC2(CC)CCCN3CCc4c(n1c1cc(NS(=O)(=O)c5ccc(I)cc5)ccc41)C32 (stereo not shown) [Compound 8, Ethyl 11-(4-iodophenyl)sulfonylamino-apovincaminate]",810 nM,
900 nM,"CCOC(=O)C1=CC2(CC)CCCN3CCc4c(n1c1cc(NS(=O)(=O)c5cc(Cl)ccc5Cl)ccc41)C32 (stereo not shown) [Compound 9, Ethyl 11-(2,5-dichlorophenyl)sulfonylamino-apovincaminate]",880 nM,
2000 nM,"CCOC(=O)C1=CC2(CC)CCCN3CCc4c(n1c1cc(NS(=O)(=O)c5cccc6ccccc56)ccc41)C32 (stereo not shown) [Compound 10, Ethyl 11-(1-naphthalene)sulfonylamino-apovincaminate]",9200 nM,
,"CCOC(=O)C1=CC2(CC)CCCN3CCc4c(n1c1cc(NS(=O)(=O)c5ccc(C)cc5)ccc41)C32 (stereo not shown) [Compound 11, Ethyl 11-(4-toluene)sulfonylamino-apovincaminate]",,LD50 [2]: 125 mg/kg; EC50 ([3]; Oryctolagus cuniculus): 1000 nM; IC50 [4]: 50 nM; Bloodflow increment (%) Femoral artery ([5]; dose 0.1 mg/kg): 2.9%; Bloodflow increment (%) Vertebral artery ([5]; dose 0.1 mg/kg): 5.4%; Bloodflow increment (%) Femoral artery ([5]; dose 0.3 mg/kg): 5.1%; Bloodflow increment (%) Vertebral artery ([5]; dose 0.3 mg/kg): 11.8%; Bloodflow increment (%) Femoral artery ([5]; dose 1.0 mg/kg): 4.5%; Bloodflow increment (%) Vertebral artery ([5]; dose 1.0 mg/kg): 32.5%; Platelet aggregation inhibition rate (%) Arachidonic acid ([1]; oral 100 mg/kg): 33.9%; Platelet aggregation inhibition rate (%) Collagen ([1]; oral 100 mg/kg): 49.1%
,"CCOC(=O)C1=CC2(CC)CCCN3CCc4c(n1c1cc(NS(=O)(=O)c5c(C)cc(C)cc5C)ccc41)C32 (stereo not shown) [Compound 12, Ethyl 11-mesytylenesulfonylamino-apovincaminate]",,LD50 [2]: 50 mg/kg; Platelet aggregation inhibition rate (%) Collagen ([1]; oral 100 mg/kg): 13.0%
300 nM,"CCOC(=O)C1=CC2(CC)CCCN3CCc4c(n1c1cc(NS(=O)(=O)Cc5ccccc5)ccc41)C32 (stereo not shown) [Compound 13, Ethyl 11-benzylsulfonylamino-apovincaminate]",4400 nM,
1200 nM,"CCOC(=O)C1=CC2(CC)CCCN3CCc4c(n1c1cc(NS(=O)(=O)c5ccc(NC(C)=O)cc5)ccc41)C32 (stereo not shown) [Compound 14, Ethyl 11-(4-acetylaminophenyl)sulfonyl-amino-apovincaminate]",470 nM,
500 nM,"CCOC(=O)C1=CC2(CC)CCCN3CCc4c(n1c1cc(NS(=O)(=O)c5cccc6cccnc56)ccc41)C32 (stereo not shown) [Compound 15, Ethyl 11-(8-quinoline)sulfonylamino-apovincaminate]",4100 nM,
700 nM,"CCOC(=O)C1=CC2(CC)CCCN3CCc4c(n1c1cc(NS(=O)(=O)c5ccc(OC)cc5)ccc41)C32 (stereo not shown) [Compound 16, Ethyl 11-(4-methoxyphenyl) sulfonylamino-apovincaminate]",1000 nM,
710 nM,"CCOC(=O)C1=CC2(CC)CCCN3CCc4c(n1c1cc(NS(=O)(=O)c5cc(C)ccc5C)ccc41)C32 (stereo not shown) [Compound 17, Ethyl 11-(2,5-dimethylphenyl)sulfonyl-amino-apovincaminate]",720 nM,
630 nM,"CCOC(=O)C1=CC2(CC)CCCN3CCc4c(n1c1cc(NS(=O)(=O)c5cccs5)ccc41)C32 (stereo not shown) [Compound 18, Ethyl 11-(2-thiophene)sulfonylamino-apovincaminate]",400 nM,
200 nM,"CCOC(=O)C1=CC2(CC)CCCN3CCc4c(n1c1cc(NS(=O)(=O)c5ccccc5C(=O)OC)ccc41)C32 (stereo not shown) [Compound 19, Ethyl 11-(2-methoxycarbonylphenyl)sulfonylamino-apovincaminate]",1800 nM,
,"CCOC(=O)C1=C[C@]2(CC)CCCN3CCc4c(n1c1cc(NS(=O)(=O)c5c(C(C)C)cc(C(C)C)cc5C(C)C)ccc41)[C@@H]32 [Compound 20, Ethyl 11-(2,4,6-triisopropylphenyl)sulfonylamino-apovincaminate]",,"EC50 ([3]; rabbit superior mesenteric artery contracted with potassium chloride, concentration for 50% relaxation): 930 nM"
2100 nM,"CCOC(=O)C1=CC2(CC)CCCN3CCc4c(n1c1cc(NS(=O)(=O)c5ccc(OC)cc5[N+](=O)[O-])ccc41)C32 (stereo not shown) [Compound 21, Ethyl 11-(4-methoxy-2-nitrophenyl)sulfonylamino-apovincaminate]",400 nM,
860 nM,"CCOC(=O)C1=CC2(CC)CCCN3CCc4c(n1c1cc(NS(=O)(=O)c5ccc6ccccc6c5)ccc41)C32 (stereo not shown) [Compound 22, Ethyl 11-(2-naphthalene)sulfonylamino-apovincaminate]",280 nM,
1200 nM,"CCOC(=O)C1=CC2(CC)CCCN3CCc4c(n1c1cc(NS(=O)(=O)c5c(F)c(F)c(F)c(F)c5F)ccc41)C32 (stereo not shown) [Compound 23, Ethyl 11-(2,3,4,5,6-pentafluorophenyl)sulfonylamino-apovincaminate]",580 nM,
,"CCOC(=O)C1=CC2(CC)CCCN3CCc4c(n1c1cc(NS(=O)(=O)c5cccc([N+](=O)[O-])c5)ccc41)C32 (stereo not shown) [Compound 24, Ethyl 11-(3-nitrophenyl)sulfonylamno-apovincaminate]",,EC50 ([3]; Oryctolagus cuniculus): 200 nM; IC50 [4]: 900 nM
,"CCOC(=O)C1=CC2(CC)CCCN3CCc4c(n1c1ccccc41)C32 (stereo not shown) [Vinpocetine phosphate, vinpocetine phosphate, reference compound]",,LD50 [2]: 60 mg/kg

Structure (SMILES),"EC50 [3, 6]","IC50 [4, 7]",other results
"CCC12C=C(C(=O)OC)n3c4c(c5ccc(NS(=O)(=O)c6ccc(Cl)cc6)cc53)CCN(CCC1)C42 (stereo not shown) [Compound 3, Methyl 11-(4-chlorophenyl)sulfonylamino-apovincaminate]",1700 nM,250 nM,
